US9695155B2, “Herbicidal substituted pyrimidinyloxy benzene compounds” (E. I. DU PONT DE NEMOURS AND COMPANY, priority 2013, dated 2017)

Columns and labels:
corn = test: Test E preemergence; type: in vivo, Zea mays; settings: for Corn plant response rating: scale 0 to 100 (0 no effect, 100 complete control); for Plant response rating, Corn: scale 0 to 100, 0 no effect, 100 complete control
Source text: (§1) Seeds of plant species selected from corn (Zea mays), soybean (Glycine max), velvetleaf (Abutilon theophrasti), lambsquarters (Chenopodium album), wild poinsettia (Euphorbia heterophylla), palmer pigweed (Amaranthus palmeri), waterhemp (common waterhemp, Amaranthus rudis), surinam grass (Brachiaria decumbens), large (Lg) crabgrass (Digitaria sanguinalis), Brazilian crabgrass (Digitaria horizontalis), fall panicum (Panicum dichotomiflorum), giant foxtail (Setaria faberii), green foxtail (Setaria viridis), goosegrass (Eleusine indica), johnsongrass (Sorghum halepense), ragweed (common ragweed, Ambrosia elatior), barnyardgrass (Echinochloa crus-galli), sandbur (southern sandbur, Cenchrus echinatus), arrowleaf sida (Sida rhombifolia), Italian ryegrass (Lolium multiflorum), dayflower (Virginia (VA) dayflower, Commelina virginica), field bindweed (Convolvulus arvensis), morningglory (Ipomoea coccinea), nightshade (eastern black nightshade, Solanum ptycanthum), kochia (Kochia scoparia), yellow nutsedge (Cyperus esculentus), cocklebur (common cocklebur, Xanthium strumarium), smartweed (ladysthumb smartweed, and hairy beggarticks (Bidens pilosa), were planted into a silt loam soil and treated preemergence with test chemicals formulated in a non-phytotoxic solvent mixture which included a surfactant.
(§2) At the same time, plants from these crop and weed species and also horseweed (Canada horseweed, Conyza canadensis), waterhemp_RES1, (ALS & Triazine resistant common waterhemp, Amaranthus rudis), and waterhemp_RES2, (ALS & HPPD resistant common waterhemp, Amaranthus rudis) were planted in pots containing Redi-Earth® planting medium (Scotts Company, 14111 Scottslawn Road, Marysville, Ohio 43041) comprising spaghnum peat moss, vermiculite, wetting agent and starter nutrients were treated with postemergence applications of test chemicals formulated in the same manner. Plants ranged in height from 2 to 18 cm for postemergence treatments (1- to 4-leaf stage). Treated plants and controls were maintained in a greenhouse for 14 to 21 days, after which time all species were compared to controls and visually evaluated. Plant response ratings, summarized in Table E, are based on a scale of 0 to 100 where 0 is no effect and 100 is complete control. A dash (-) response means no test result.

velvetleaf = test: Test E preemergence; type: in vivo, Abutilon theophrasti; settings: for Velvetleaf plant response rating: scale 0 to 100 (0 no effect, 100 complete control); for Plant response rating, Velvetleaf: scale 0 to 100, 0 no effect, 100 complete control
Source text: as §1, §2

lambsquarters = test: Test E preemergence; type: in vivo, Chenopodium album; settings: for Lambsquarters plant response rating: scale 0 to 100 (0 no effect, 100 complete control); for Plant response rating, Lambsquarters: scale 0 to 100, 0 no effect, 100 complete control
Source text: as §1, §2

waterhemp = test: Test E preemergence; type: in vivo, Amaranthus rudis; settings: for Waterhemp plant response rating: scale 0 to 100 (0 no effect, 100 complete control); for Plant response rating, Waterhemp: scale 0 to 100, 0 no effect, 100 complete control
Source text: as §1, §2

Brazilian crabgrass = test: Test E preemergence; type: in vivo, Digitaria horizontalis; settings: for Crabgrass, Brazil plant response rating: scale 0 to 100 (0 no effect, 100 complete control); for Plant response rating, Crabgrass, Brazil: scale 0 to 100, 0 no effect, 100 complete control
Source text: as §1, §2

johnsongrass = test: Test E preemergence; type: in vivo, Sorghum halepense; settings: for Johnsongrass plant response rating: scale 0 to 100 (0 no effect, 100 complete control); for Plant response rating, Johnsongrass: scale 0 to 100, 0 no effect, 100 complete control
Source text: as §1, §2

arrowleaf sida = test: Test E preemergence; type: in vivo, Sida rhombifolia; settings: for Arrowleaf Sida plant response rating: scale 0 to 100 (0 no effect, 100 complete control); for Plant response rating, Arrowleaf Sida: scale 0 to 100, 0 no effect, 100 complete control
Source text: as §1, §2

field bindweed = test: Test E preemergence; type: in vivo, Convolvulus arvensis; settings: for Field Bindweed plant response rating: scale 0 to 100 (0 no effect, 100 complete control); for Plant response rating, Field Bindweed: scale 0 to 100, 0 no effect, 100 complete control
Source text: as §1, §2

yellow nutsedge = test: Test E preemergence; type: in vivo, Cyperus esculentus; settings: for Nutsedge, Yellow plant response rating: scale 0 to 100 (0 no effect, 100 complete control); for Plant response rating, Nutsedge, Yellow: scale 0 to 100, 0 no effect, 100 complete control
Source text: as §1, §2

rice = test: Test C flooded paddy test; type: in vivo, Oryza sativa; settings: Flood, scale 0 to 100 (0 no effect, 100 complete control), 13 to 15 days
Outline: (§3)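 Pots were flooded to 3 cm above the soil surface at treatment, compound applied directly to the paddy water, and that depth held throughout. Plants were kept in a greenhouse for 13 to 15 days, then visually rated against untreated controls.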

sedge, umbrella = test: Test C flooded paddy test; type: in vivo, Cyperus difformis; settings: Flood, scale 0 to 100 (0 no effect, 100 complete control), 13 to 15 days
Outline: as §3

kochia = test: Test A preemergence; type: in vivo, Kochia scoparia
Outline: (§4)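 Compounds in non-phytotoxic solvent with surfactant applied as soil spray preemergence, or postemergence to plants 2-10 cm at one- to two-leaf stage, in loam/sand. After approximately 10 days in greenhouse, injury rated visually versus untreated controls, 0 (no effect) to 100 (complete control).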

Italian ryegrass = test: Test A preemergence; type: in vivo, Lolium multiflorum
Outline: as §4

blackgrass = test: Test A postemergence; type: in vivo, Alopecurus myosuroides; settings: 0 to 100 scale, 0 no effect, 100 complete control
Outline: as §4

[1] = 31 g ai/ha, 0 to 100 scale where 0 is no effect and 100 is complete control, visual, approximately 10 days

FC(F)(F)c1cnn(-c2ccccc2Oc2ncc(Cl)cn2)c1 [Compound 16]
Corn plant response rating (corn; 16 g ai/ha): 0 | Corn plant response rating (corn; 31 g ai/ha): 0 | Corn plant response rating (corn; 62 g ai/ha): 0 | Plant response rating, Corn (corn; 125 g ai/ha): 20 | Plant response rating, Corn (corn; 250 g ai/ha): 25 | Velvetleaf plant response rating (velvetleaf; 16 g ai/ha): 0 | Velvetleaf plant response rating (velvetleaf; 31 g ai/ha): 50 | Velvetleaf plant response rating (velvetleaf; 62 g ai/ha): 85 | Plant response rating, Velvetleaf (velvetleaf; 125 g ai/ha): 100 | Plant response rating, Velvetleaf (velvetleaf; 250 g ai/ha): 100 | Lambsquarters plant response rating (lambsquarters; 16 g ai/ha): 50 | Lambsquarters plant response rating (lambsquarters; 31 g ai/ha): 80 | Lambsquarters plant response rating (lambsquarters; 62 g ai/ha): 98 | Plant response rating, Lambsquarters (lambsquarters; 125 g ai/ha): 98 | Plant response rating, Lambsquarters (lambsquarters; 250 g ai/ha): 98 | Waterhemp plant response rating (waterhemp; 16 g ai/ha): 100 | Waterhemp plant response rating (waterhemp; 31 g ai/ha): 100 | Waterhemp plant response rating (waterhemp; 62 g ai/ha): 100 | Plant response rating, Waterhemp (waterhemp; 125 g ai/ha): 100 | Plant response rating, Waterhemp (waterhemp; 250 g ai/ha): 100 | Crabgrass, Brazil plant response rating (Brazilian crabgrass; 62 g ai/ha): 100 | Plant response rating, Crabgrass, Brazil (Brazilian crabgrass; 125 g ai/ha): 100 | Plant response rating, Crabgrass, Brazil (Brazilian crabgrass; 250 g ai/ha): 100 | Johnsongrass plant response rating (johnsongrass; 16 g ai/ha): 0 | Johnsongrass plant response rating (johnsongrass; 31 g ai/ha): 0 | Johnsongrass plant response rating (johnsongrass; 62 g ai/ha): 0 | Plant response rating, Johnsongrass (johnsongrass; 125 g ai/ha): 25 | Plant response rating, Johnsongrass (johnsongrass; 250 g ai/ha): 40 | Arrowleaf Sida plant response rating (arrowleaf sida; 16 g ai/ha, preemergence): 5 | Arrowleaf Sida plant response rating (arrowleaf sida; 31 g ai/ha, preemergence): 35 | Plant response rating, Arrowleaf Sida (arrowleaf sida; Preemergence, 62 g ai/ha): 70 | Plant response rating, Arrowleaf Sida (arrowleaf sida; preemergence, 125 g ai/ha): 95 | Plant response rating, Arrowleaf Sida (arrowleaf sida; preemergence, 250 g ai/ha): 98 | Field Bindweed plant response rating (field bindweed; 16 g ai/ha): 0 | Field Bindweed plant response rating (field bindweed; 31 g ai/ha): 0 | Field Bindweed plant response rating (field bindweed; 62 g ai/ha): 0 | Plant response rating, Field Bindweed (field bindweed; 125 g ai/ha): 30 | Plant response rating, Field Bindweed (field bindweed; 250 g ai/ha): 60 | Nutsedge, Yellow plant response rating (yellow nutsedge; 16 g ai/ha): 0 | Nutsedge, Yellow plant response rating (yellow nutsedge; 31 g ai/ha): 0 | Nutsedge, Yellow plant response rating (yellow nutsedge; 62 g ai/ha): 0 | Plant response rating, Nutsedge, Yellow (yellow nutsedge; 125 g ai/ha): 35 | Plant response rating, Nutsedge, Yellow (yellow nutsedge; 250 g ai/ha): 35

FC(F)(F)c1cnn(-c2ccccc2Oc2ncc(Br)cn2)c1 [Compound 18, 5-bromo-2-[2-[4-(trifluoromethyl)-1H-pyrazol-1-yl]phenoxy]pyrimidine]
Plant response rating, Rice (rice; 31 g ai/ha): 0 | Plant response rating, Rice (rice; 62 g ai/ha): 0 | Plant response rating, Rice (rice; 125 g ai/ha): 0 | Plant response rating, Rice (rice; 250 g ai/ha): 10 | Plant response rating, Sedge, Umbrella (sedge, umbrella; 31 g ai/ha): 70 | Plant response rating, Sedge, Umbrella (sedge, umbrella; 62 g ai/ha): 75 | Plant response rating, Sedge, Umbrella (sedge, umbrella; 125 g ai/ha): 85 | Plant response rating, Sedge, Umbrella (sedge, umbrella; 250 g ai/ha): 90 | Corn plant response rating (corn; 16 g ai/ha): 0 | Corn plant response rating (corn; 31 g ai/ha): 0 | Corn plant response rating (corn; 62 g ai/ha): 0 | Plant response rating, Corn (corn; 125 g ai/ha): 0 | Plant response rating, Corn (corn; 250 g ai/ha): 0 | Velvetleaf plant response rating (velvetleaf; 16 g ai/ha): 25 | Velvetleaf plant response rating (velvetleaf; 31 g ai/ha): 95 | Velvetleaf plant response rating (velvetleaf; 62 g ai/ha): 100 | Plant response rating, Velvetleaf (velvetleaf; 125 g ai/ha): 100 | Plant response rating, Velvetleaf (velvetleaf; 250 g ai/ha): 100 | Lambsquarters plant response rating (lambsquarters; 16 g ai/ha): 80 | Lambsquarters plant response rating (lambsquarters; 31 g ai/ha): 90 | Lambsquarters plant response rating (lambsquarters; 62 g ai/ha): 98 | Plant response rating, Lambsquarters (lambsquarters; 125 g ai/ha): 98 | Plant response rating, Lambsquarters (lambsquarters; 250 g ai/ha): 98 | Waterhemp plant response rating (waterhemp; 16 g ai/ha): 100 | Waterhemp plant response rating (waterhemp; 31 g ai/ha): 100 | Waterhemp plant response rating (waterhemp; 62 g ai/ha): 100 | Plant response rating, Waterhemp (waterhemp; 125 g ai/ha): 100 | Plant response rating, Waterhemp (waterhemp; 250 g ai/ha): 100 | Crabgrass, Brazil plant response rating (Brazilian crabgrass; 16 g ai/ha): 0 | Crabgrass, Brazil plant response rating (Brazilian crabgrass; 31 g ai/ha): 95 | Crabgrass, Brazil plant response rating (Brazilian crabgrass; 62 g ai/ha): 98 | Plant response rating, Crabgrass, Brazil (Brazilian crabgrass; 125 g ai/ha): 100 | Plant response rating, Crabgrass, Brazil (Brazilian crabgrass; 250 g ai/ha): 100 | Johnsongrass plant response rating (johnsongrass; 16 g ai/ha): 0 | Johnsongrass plant response rating (johnsongrass; 31 g ai/ha): 0 | Johnsongrass plant response rating (johnsongrass; 62 g ai/ha): 0 | Plant response rating, Johnsongrass (johnsongrass; 125 g ai/ha): 80 | Arrowleaf Sida plant response rating (arrowleaf sida; 16 g ai/ha, preemergence): 0 | Arrowleaf Sida plant response rating (arrowleaf sida; 31 g ai/ha, preemergence): 5 | Plant response rating, Arrowleaf Sida (arrowleaf sida; Preemergence, 62 g ai/ha): 70 | Plant response rating, Arrowleaf Sida (arrowleaf sida; preemergence, 125 g ai/ha): 85 | Plant response rating, Arrowleaf Sida (arrowleaf sida; preemergence, 250 g ai/ha): 95 | Field Bindweed plant response rating (field bindweed; 16 g ai/ha): 0 | Field Bindweed plant response rating (field bindweed; 31 g ai/ha): 0 | Field Bindweed plant response rating (field bindweed; 62 g ai/ha): 30 | Plant response rating, Field Bindweed (field bindweed; 125 g ai/ha): 40 | Plant response rating, Field Bindweed (field bindweed; 250 g ai/ha): 40 | Nutsedge, Yellow plant response rating (yellow nutsedge; 16 g ai/ha): 0 | Nutsedge, Yellow plant response rating (yellow nutsedge; 31 g ai/ha): 0 | Nutsedge, Yellow plant response rating (yellow nutsedge; 62 g ai/ha): 0 | Plant response rating, Nutsedge, Yellow (yellow nutsedge; 125 g ai/ha): 0 | Plant response rating, Nutsedge, Yellow (yellow nutsedge; 250 g ai/ha): 10

Fc1cccc(Oc2ncc(Cl)cn2)c1-n1cc(OCC(F)(F)F)cn1 [Compound 270]
Plant response rating, Kochia (kochia; [1]): 80 | Kochia plant response rating (0 to 100 scale) (kochia; 125 g ai/ha): 100 | Plant response rating, Ryegrass, Italian (Italian ryegrass; [1]): 0 | Ryegrass, Italian plant response rating (0 to 100 scale) (Italian ryegrass; 125 g ai/ha): 10 | Plant response rating, Blackgrass (blackgrass; 31 g ai/ha): 10 | Plant response rating, Blackgrass (blackgrass; 125 g ai/ha): 40 | Plant response rating, Rice (rice; 31 g ai/ha): 0 | Plant response rating, Rice (rice; 62 g ai/ha): 0 | Plant response rating, Rice (rice; 125 g ai/ha): 0 | Plant response rating, Rice (rice; 250 g ai/ha): 30 | Plant response rating, Sedge, Umbrella (sedge, umbrella; 31 g ai/ha): 0 | Plant response rating, Sedge, Umbrella (sedge, umbrella; 62 g ai/ha): 25 | Plant response rating, Sedge, Umbrella (sedge, umbrella; 125 g ai/ha): 60 | Plant response rating, Sedge, Umbrella (sedge, umbrella; 250 g ai/ha): 95
